Laboratory results from patent publication US20140073505A1, “HERBICIDAL COMPOSITIONS COMPRISING AMINOPYRALID AND TRICLOPYR” (DOW AGROSCIENCES LLC, priority 2012, published 2014).
Where a name gives a salt, the structure may show the parent alone.

Tests used:
Assay type in all cases: in vivo
[1] = system: Cyperus iria L. (rice flatsedge, CYPIR); assay: Postemergence herbicidal activity under field conditions in rice, visual weed control
Method: (§1) These trials were conducted under field conditions in Ibague, Colombia; Geisenbrunn, Germany; and Montarges, France. Trial sites were located in commercially grown fields of common rice (Oryza sativa) or permanent pastures. The rice and pasture crops were grown using normal cultural practices for fertilization, seeding, and maintenance to ensure good growth of the crop and the weeds. The trials were conducted using normal research methodology. Trial plots were 2-3 meters (m) wide by 6 m long. All treatments were applied using a randomized complete block trial design with 3 to 4 replications per treatment. The trial sites had naturally occurring populations of weeds. The weed spectrum included, but was not limited to, Cyperus iria L. (rice flatsedge, CYPIR), Eclipta prostrata (L.) L. (eclipta, ECLAL), Ludwigia linifolia (ludwigia, LUDLI), Taraxacum officinale G. H. Weber ex Wiggers (dandelion, TAROF), Rumex obtusifolius L. (broadleaf dock, RUMOB) and Urtica dioica L. (common nettle, URTDI). The plots were treated with a postemergence foliar application 15 to 20 days after emergence of the rice or during the normal timing of herbicide application used for weed control in pastures/grasslands.
(§2) Treatments consisted of tank mixes of commercially available formulations of aminopyralid triisopropanolammonium salt (MILESTONE 240SL), triclopyr butotyl (GARLON4 480EC) and an experimental formulation of the aminopyralid potassium salt (GF-389), with all rice treatments tankmixed with adjuvant (CARRIER 80EC) at 0.5% volume per volume (vol/vol) but no adjuvant was used in any of the pasture treatments. The application volume was 200 liters per hectare (L/ha) of water. All applications were made using precision gas hand sprayers using a 2 m boom using flat fan (8002) nozzles to broadcast the treatments over the top of the target crop (rice and pastures) and weeds.
(§3) The treated plots and control plots were rated blind at various intervals after application. Ratings were based of Percent (%) Visual weed control, where 0 corresponds to no injury and 100 corresponds to complete kill.
(§4) Colby's equation was used to determine the herbicidal effects expected from the mixtures (Colby, S. R. Calculation of the synergistic and antagonistic response of herbicide combinations. Weeds 1967 15, 20-22).
(§5) The following equation was used to calculate the expected activity of mixtures containing two active ingredients, A and B:
(§6) A=observed efficacy of active ingredient A at the same concentration as used in the mixture;
(§7) B=observed efficacy of active ingredient B at the same concentration as used in the mixture.

[2] = system: Eclipta prostrata (L.) L. (eclipta, ECLAL); assay: as above
Method: as §1, §2, §3, §4, §5, §6, §7

[3] = system: Ludwigia linifolia (ludwigia, LUDLI); assay: as above
Method: as §1, §2, §3, §4, §5, §6, §7

[4] = system: Rumex obtusifolius L. (broadleaf dock, RUMOB); assay: Postemergence herbicidal activity under field conditions in pastures, visual weed control
Method: as §1, §2, §3, §4, §5, §6, §7

[5] = system: Taraxacum officinale G. H. Weber ex Wiggers (dandelion, TAROF); assay: as above; details: for Visual Weed Control (%) TAROF 178 DAA Obs: first 178 DAA column; for Visual Weed Control (%) TAROFI 178 DAA Obs: second 178 DAA column
Method: as §1, §2, §3, §4, §5, §6, §7

[6] = system: Urtica dioica L. (common nettle, URTDI); assay: as above
Method: as §1, §2, §3, §4, §5, §6, §7

## Nc1cc(Cl)nc(C(=O)O)c1Cl [Aminopyralid triisopropanolammonium salt, 4-amino-3,6-dichloro-2-pyridinecarboxylic acid]
[1]; aminopyralid 8 g ae/ha alone
  Visual Weed Control (%) CYPIR 11 DAA Obs: 3%
  Visual Weed Control (%) CYPIR 18 DAA Obs: 8%
[1]; aminopyralid 24 g ae/ha alone
  Visual Weed Control (%) CYPIR 11 DAA Obs: 23%
[1]; aminopyralid 16 g ae/ha alone
  Visual Weed Control (%) CYPIR 18 DAA Obs: 25%
[2]; aminopyralid 8 g ae/ha alone
  Visual Weed Control (%) ECLAL 11 DAA Obs: 76%
[3]; aminopyralid 8 g ae/ha alone
  Visual Weed Control (%) LUDLI 11 DAA Obs: 73%

## O=C(O)COc1nc(Cl)c(Cl)cc1Cl [Triclopyr, 2-[(3,5,6-trichloro-2-pyridinyl)oxy]acetic acid]
[1]; triclopyr 24 g ae/ha alone
  Visual Weed Control (%) CYPIR 11 DAA Obs: 0%
  Visual Weed Control (%) CYPIR 18 DAA Obs: 0%
[1]; triclopyr 72 g ae/ha alone
  Visual Weed Control (%) CYPIR 11 DAA Obs: 1%
[1]; triclopyr 48 g ae/ha alone
  Visual Weed Control (%) CYPIR 18 DAA Obs: 6%
[2]; triclopyr 24 g ae/ha alone
  Visual Weed Control (%) ECLAL 11 DAA Obs: 6%
[3]; triclopyr 24 g ae/ha alone
  Visual Weed Control (%) LUDLI 11 DAA Obs: 5%
[4]; triclopyr 480 g ae/ha alone
  Visual Weed Control (%) RUMOB 13 DAA Obs: 57%
[5]; TAROF, triclopyr 240 g ae/ha alone
  Visual Weed Control (%) TAROF 13 DAA Obs: 27%
[5]; TAROF, triclopyr 960 g ae/ha alone
  Visual Weed Control (%) TAROF 13 DAA Obs: 38%
[5]; triclopyr 240 g ae/ha alone
  Visual Weed Control (%) TAROF 122 DAA Obs: 0- %
[5]; triclopyr 480 g ae/ha alone
  Visual Weed Control (%) TAROF 178 DAA Obs: 0%
[5]; triclopyr 960 g ae/ha alone
  Visual Weed Control (%) TAROFI 178 DAA Obs: 47%
[5]; 378 DAA, TAROF, triclopyr 240 g ae/ha alone
  Visual Weed Control (%) TAROF 378 DAA Obs: 10%
[5]; 378 DAA, TAROF, triclopyr 480 g ae/ha alone (value printed in Exp* column)
  Visual Weed Control (%) TAROF 378 DAA Exp*: 30%
[6]; triclopyr 240 g ae/ha alone
  Visual Weed Control (%) URTDI 342 DAA Obs: 33%

## Nc1cc(Cl)nc(C(=O)O)c1Cl [Aminopyralid potassium salt, 4-amino-3,6-dichloro-2-pyridinecarboxylic acid]
[4]; aminopyralid 60 g ae/ha alone
  Visual Weed Control (%) RUMOB 13 DAA Obs: 82%
[5]; first TAROF column, aminopyralid 60 g ae/ha alone
  Visual Weed Control (%) TAROF 13 DAA Obs: 57%
[5]; second TAROF column, aminopyralid 60 g ae/ha alone
  Visual Weed Control (%) TAROF 13 DAA Obs: 45%
[5]; aminopyralid 60 g ae/ha alone
  Visual Weed Control (%) TAROF 122 DAA Obs: 80%
  Visual Weed Control (%) TAROF 178 DAA Obs: 73%
  Visual Weed Control (%) TAROFI 178 DAA Obs: 73%
[5]; 378 DAA, first TAROF column, aminopyralid 60 g ae/ha alone
  Visual Weed Control (%) TAROF 378 DAA Obs: 40%
[5]; 378 DAA, second TAROF column, aminopyralid 60 g ae/ha alone
  Visual Weed Control (%) TAROF 378 DAA Obs: 40%
[6]; aminopyralid 60 g ae/ha alone
  Visual Weed Control (%) URTDI 342 DAA Obs: 17%
